Measurements: patent US10022440B2, “Materials and methods for modulating immune responses” (UNIVERSITY OF FLORIDA RESEARCH FOUNDATION, INCORPORATED, priority 2011, dated 2018)

Columns and labels:
whole bone marrow cells = experiment: In vitro migration assay toward GM-CSF, bone marrow cells; assay type: cell-based, mouse; conditions: for increase in cell migration: after 24 hrs, in the presence of GM-CSF, n=3 per group
Protocol: (§1) An in vitro migration assay was performed to evaluate the migratory capacity of splenocytes and bone marrow cells toward GM-CSF. NOD, non-obese resistant (NOR), and C57/BL6 (n=3 per group) mouse cells were used in this assay.

splenocytes = experiment: In vitro migration assay toward GM-CSF, splenocytes; assay type: cell-based, mouse; conditions: for increase in cell migration: after 24 hrs, in the presence of GM-CSF, n=3 per group
Protocol: as §1

With GM-CSF the “increase in cell migration” value (whole bone marrow cells; C57/BL6 whole bone marrow cells) was 100%, the cell migration (whole bone marrow cells; NOD bone marrow cells, compared with NOR and C57/BL6 bone marrow cells) was “migrated in a similar manner” and the “increase in cell migration” value (whole bone marrow cells; NOR whole bone marrow cells) was 100%. For the same substance, the “increase in cell migration” value (splenocytes; C57/BL6 splenocytes) was 100%, the “migration ratios with or without GM-CSF” value (splenocytes; NOD splenocytes, p<0.05) was “no difference” and the “increase in cell migration” value (splenocytes; NOR splenocytes) was 100%.
